Test [1] has as its target wild type MLL1 four-member complex (MLL1-4C) (Homo sapiens, UniProt Q03164). Description: MLL1 LC-MS assay. In kind it is biochemical. The note with it: 30 nM MLL1-4C, 2.5 μM SAM, 10 μM H3K4me0; SAH production by LC-MS/MS; read-out: MLL1 LCMS. In short, it runs like this:
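Compound (8 or 12 points, 3-fold) preincubated 20 min with MLL1-4C and SAM; reaction started with H3K4me0 biotinylated peptide (final 30 nM enzyme, 2.5 μM SAM, 10 μM substrate, pH 8.0), 120 min at rt. TFA quench with d4-SAH; SAH quantified by LC-MS/MS, normalised to controls and fitted for IC50.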

For a further test, the system named is H3K4me3 in MV4-11 cells. As to the kind of experiment: MV4-11 H3K4Me3 cellular ELISA assay. It counts as cell-based. Particulars: Homo sapiens, 48 hours, H3K4me3 signal normalized to total H3. The procedure: MV4-11H3K4Me3 Cellular ELISA Assay
MV4-11 (ATCC® CRL-9591™) was cultured with RPMI1640 medium (Thermo Fisher Scientific, cat #11875) supplemented with 10% FBS (Thermo Fisher Scientific, cat #10099141) and 50 U/ml Penicillin-Streptomycin (Thermo Fisher Scientific, cat #10378016) in humidified incubator at 37° C., 5% CO2.
200 nL compounds dissolved in DMSO were serially diluted at 1:3 ratio for 12 points starting from 10 mM and dispensed into each wells of cell culture plates (PDL-coated ViewPlate-384 Black, FTC, PerkinElmer, #6007710). 3,750 MV4-11 cells in 40 μL culture medium were seeded into each well and treated with desired concentration for 48 hours. After treatment, wash cells with cold phosphate based buffer (PBS, pH 7.4) and aspirate the remaining PBS buffer. Crude histone lysate was extracted by 40 μL 0.5M HCl for 1 hour in 4° C. following neutralization by adding 32 μL neutralization buffer (0.5M Sodium phosphate dibasic, pH˜12.5, 1.25 mM Dithiothreitol, Promega #V3151, Protease Inhibitor Cocktail, Sigma #8340) for each well. 5 μL and 20 μL of histone lysate was loaded to ELISA plate (384 Well Plates, PE HB, White, 6005620) for detection of total H3 and H3K4me3, respectively. Shake the plates gently in 4° C. for overnight. After histone binding, plates were washed with 80 μL PBS/T (PBS with 0.05% Tween-20) and blocked with 50 μL 3% BSA diluted in PBS/T per well for 1 hour. Incubate wells with primary antibody for 1 hour at room temperature using anti-H3K4me3 (CST #9727) and anti-total H3 (CST #9715) diluted 1:2000 in 3% BSA. Plates were then washed with PBS/T for 3 times and incubated with horseradish peroxidase (HRP) conjugated secondary antibody (CST #7074, 1:5000) for 1 hour at room temperature. The abundance of H3K4me3 and total H3 were measured by ECL substrates chemiluminesce (Pierce, #34080) on a plate reader (PerkinElmer EnVison 2104 Mutilable Reader). Percentage inhibition was calculated against DMSO control after normalization of H3K4me3 signal to H3 signal for individual samples. The data were then fit to a dose response curve using GraphPad Prism for IC50 calculation.

For a further test, the system named is MV4-11 cells. Description: MV4-11 6-day cell growth CTG (CellTiter-Glo) assay. It counts as cell-based. Particulars: Homo sapiens, 144 h, 6 days. The procedure:
MV4-11 6-Day Cell Growth CTG (CellTiter-Glo) Assay
Acute myeloid leukemia cell MV4-11 (ATCC® CRL-9591™) was cultured with RPMI 1640 medium (Thermo Fisher Scientific, cat #11875) supplemented with 10% FBS (Thermo Fisher Scientific, cat #10099141) in humidified incubator at 37° C., 5% CO2. To assess the effect of MLL1 inhibition on cell growth, the compound of the present invention was dissolved in DMSO and serially diluted at 1:3 for 12 points starting from 10 mM then 200 nL for the replicate of each dose per well was dispensed to Viewplate-384 Black (Perkin Elmer). Exponentially growing MV4-11 cells were seeded at the density of 300 cells per well in 40 μL to the plate, so the final compound working concentration starts from 50 μM. After 6 days, 40 μL CellTiter-Glo (Promega, cat #G7573) was added into the cell culture well and luminescence was read with Envision (Perkin Elmer) to determine the viable cells. The percentage inhibition was calculated against the samples treated with DMSO only and the data were used for dose response curve fitting in GraphPad Prism to get the IC50 of representative compound of present invention, which reflects the inhibition of MLL1 activity.
A general note: In ATP-based viability assays light output follows the ATP content of the culture.

Test [2] deals with wild type MLL1 five-member complex (MLL1-5C) (Homo sapiens, UniProt Q03164). Description: MLL1 Flashplate assay. In kind it is biochemical. The note with it: 2.5 nM MLL1-5C, 0.5 μM 3H-SAM, 1 μM H3K4me0; read-out: MLL1 flash plate. The procedure: MLL1 Flashplate Assay To assess the compound potency in MLL1 Flashplate assay, compounds were serially diluted 3-fold in DMSO to obtain a total of twelve concentrations. Then the test compounds at each concentration (250 nL of each) were transferred by Mosquito into Corning #3675 384-well plate. Solutions (15 μL) of 4.2 nM wild type MLL1 five-member complex (MLL1-5C) in the assay buffer (20 mM Tris-HCl, pH8.0, 0.01% Tween 20, 1 mM DTT, 0.01% BSA) were added to the wells. A 10 μL solution of 2.5 μM of the peptide substrate H3K4me0 (histone H3[1-21]-Biotin) and 1.25 μM ^3H-SAM in the reaction buffer was then added to initiate each reaction. The final components in the reaction solution include 2.5 nM MLL1-5C, 0.5 μM ^3H-SAM, and 1 μM H3K4me0 with varying concentration of the compounds. A positive control consisted of 2.5 nM MLL1-5C, 0.5 μM ^3H-SAM, and 1 μM substrate in the absence of the test compound, and a negative control consisted of 0.5 μM ^3H-SAM, and 1 μM substrate only. Each reaction was incubated at rt for 90 min, then stopped by addition of 5 μL per of quench solution (0.5 mM SAM in assay buffer). 25 μL of each reaction solution was transferred to FlashPlate streptavidin 384-well microplate (PerkinElmer). After at least 1 h incubation at rt, the wells were washed three times with 0.1% Tween-20 in dH2O using the BioTek plate washer. The plates were then read in MicroBeta (PerkinElmer). The radioactive readouts were then normalized based on the values coming from the positive and negative controls to give percent enzyme activities. The data were then fit to a dose response equation using the program Helios to get the IC50 values of the test compounds.

For 9 compounds, IC50 results are on record in patent publication US12371434B2, “MLL1 inhibitors and anti-cancer agents” (NOVARTIS AG, priority 2020, dated 2025).

As for `COC[C@H](N)CCCOc1ccc(Cl)c(Cl)c1Cn1cnc2c(N)ncnc21` [Example 1, (R)-9-(6-((4-amino-5-methoxypentyl)oxy)-2,3-dichlorobenzyl)-9H-purin-6-amine], the IC50 was below 50 nM in test [1], above 3000 nM in the test on H3K4me3 in MV4-11 cells, 2000 to 3000 nM with MV4-11 cells and below 60 nM in test [2].
For `COC[C@H](N)CCCOc1ccc2cc(Br)ccc2c1Cn1cnc2c(N)ncnc21` [Example 20, (R)-9-((2-((4-amino-5-methoxypentyl)oxy)-6-bromonaphthalen-1-yl)methyl)-9H-purin-6-amine], the IC50 in test [1] is 50 to 100 nM; in the test on H3K4me3 in MV4-11 cells, above 3000 nM; in the test with MV4-11 cells, above 3000 nM; in test [2] it was below 60 nM.
In the case of `Nc1ncnc2c1ncn2Cc1c(OCCC[C@@H](N)C(=O)O)ccc(Cl)c1Cl` [Example 23, (R)-2-amino-5-(2-((6-amino-9H-purin-9-yl)methyl)-3,4-dichlorophenoxy)pentanoic acid], the IC50 was below 50 nM in test [1], below 1900 nM in the test with H3K4me3 in MV4-11 cells, 2000 to 3000 nM in the test on MV4-11 cells and below 60 nM in test [2].
As to `CCOC(=O)[C@H](N)CCCOc1ccc(Cl)c(Cl)c1Cn1cnc2c(N)ncnc21` [Example 29, Ethyl (R)-2-amino-5-(2-((6-amino-9H-purin-9-yl)methyl)-3,4-dichlorophenoxy)pentanoate], the IC50 in test [1] was below 50 nM; with H3K4me3 in MV4-11 cells, below 1900 nM; with MV4-11 cells, below 2000 nM; in test [2], below 60 nM.
Regarding `Nc1ncnc2c1ncn2Cc1c(OCCC[C@@H](N)C(=O)NC2CC2)ccc(Cl)c1Cl` [Example 42, (R)-2-amino-5-(2-((6-amino-9H-purin-9-yl)methyl)-3,4-dichlorophenoxy)-N-cyclopropylpentanamide], the IC50 in test [1] was below 50 nM; with H3K4me3 in MV4-11 cells, below 1900 nM; with MV4-11 cells it was below 2000 nM; in test [2] it was below 60 nM.
As for `CS(=O)(=O)NC(=O)[C@H](N)CCCOc1ccc(Cl)c(Cl)c1Cn1cnc2c(N)ncnc21` [Example 43, (R)-2-amino-5-(2-((6-amino-9H-purin-9-yl)methyl)-3,4-dichlorophenoxy)-N-(methylsulfonyl)pentanamide], the IC50 is below 50 nM in test [1], below 1900 nM in the test with H3K4me3 in MV4-11 cells, below 2000 nM with MV4-11 cells and below 60 nM in test [2].
The corresponding values for `Nc1ncnc2c1ncn2Cc1c(OCCC[C@@H](N)c2nc[nH]n2)ccc(Cl)c1Cl` [Example 48, (R)-9-(6-(4-amino-4-(1H-1,2,4-triazol-3-yl)butoxy)-2,3-dichlorobenzyl)-9H-purin-6-amine] are below 50 nM, below 1900 nM, below 2000 nM and below 60 nM.
Regarding `Cc1nnc([C@H](N)CCCOc2ccc(Cl)c(Cl)c2Cn2cnc3c(N)ncnc32)s1` [Example 50, (R)-9-(6-(4-amino-4-(5-methyl-1,3,4-thiadiazol-2-yl)butoxy)-2,3-dichlorobenzyl)-9H-purin-6-amine], the IC50 in test [1] was below 50 nM; in the test with H3K4me3 in MV4-11 cells it was above 3000 nM; in the test on MV4-11 cells, above 3000 nM; in test [2], below 60 nM.
Consider `CN(C)C[C@H](N)CCCOc1ccc(Cl)c(Cl)c1Cn1cnc2c(N)ncnc21` [Example 53, (R)-5-(2-((6-amino-9H-purin-9-yl)methyl)-3,4-dichlorophenoxy)-N^1,N^1-dimethylpentane-1,2-diamine], for which the IC50 is above 100 nM in test [1], above 3000 nM with H3K4me3 in MV4-11 cells, above 3000 nM with MV4-11 cells and above 100 nM in test [2].
